# Assay results taken from patent US9822373B2, “Mutant cells for protein secretion and lignocellulose degradation” (The Regents of the University of California, priority 2011, dated 2017).
# What was measured:
# NCU07760 (gh61-2) = assay: mRNA sequencing (RNA-Seq), transcript abundance of gh61-2; assay type: cell-based, Neurospora crassa; settings: Δ3βG mutant; 4 hours after transfer to 0.2% cellobiose
# Protocol: Conidia from strains were inoculated at an OD595 equal to 0.05 in 50 ml Vogel's salts (45) with 2% w/v sucrose in a 250 ml Erlenmeyer flask and grown under constant light at 200 rpm for 16 hours. Biomass was then spun at 4200 rpm for 10 minutes and washed in Vogel's salts twice to remove any excess sucrose. Biomass was then added to a new flask containing 50 ml Vogel's salts supplemented with 1% w/v sucrose, 0.2% w/v cellobiose (Sigma) or 1% w/v Avicel® PH 101 (Sigma). Cultures were induced for 4 hrs under constant light at 200 rpm. The culture biomass was then harvested by filtration over a Whatman glass microfiber filter (GF/F) on a Buchner funnel and washed with 50 ml Vogel's salts. The biomass was flash frozen in liquid nitrogen and stored at −80° C. Three independent biological duplicates (flasks) were evaluated for each time point.
# Total RNA from frozen samples was isolated using Zirconia/Silica beads (0.5 mm diameter; Biospec) and a Mini-Beadbeater-96 (Biospec) with 1 mL TRIzol reagent (Invitrogen) according to the manufacturer's instructions. […]
# mRNA sequencing was performed using an Illumina kit (RS-100-0801) with isolated RNA. The final cDNA library was quantified by an Agilent bioanalyzer 2000 and sequenced using an Illumina Genome Analyzer-II using standard Illumina operating procedures. […]
# Neurospora crassa [1] = assay: Secreted protein concentration in shake flask culture supernatant; assay type: cell-based; settings: Δcre-1; time not stated
# Protocol: Strains were inoculated at an OD595 equal to 0.05 in 100 ml Vogel's salts with 1% (wt/vol) sucrose in a 250 ml Erlenmeyer flask and grown under constant light at 200 rpm for 24 hours. Cultures were then induced with 2% sucrose, 2% cellobiose, 1% sucrose/1% cellobiose, or 1% sucrose/1% Avicel®. Cultures continued to grow under constant light at 200 rpm for 5 days with supernatant collected at 1, 2, 3, 4 and 5 day. The collected supernatant was filtered through a 0.2 μm PES filter to remove biomass before being stored at −20° C. until all samples were collected. To visualize the secreted proteins, 15 μl of unconcentrated supernatant was run on a Criterion 10% Tris-HCL polyacrylamide gel and stained with Thermo Scientific GelCode Blue Stain Reagent.
# Neurospora crassa [2] = assay: Total Avicelase activity of bioreactor culture supernatant; assay type: cell-based; settings: supernatant of the 24-hour induction time point
# Protocol: Cellulase production was carried out in a 3.7 L bioreactor (BioEngineering AG) at an operating volume of 1 L. The bioreactor was equipped with one 48 mm Rushton impeller and four equally spaced baffles to provide adequate mixing. Impeller speed was controlled at 200 rpm for 8 hours to allow spore germination followed by 500 rpm for the remainder of the experiment. The temperature was maintained at 25° C., and medium pH was controlled at 5.5 using 40% phosphoric acid and 1:5 diluted ammonium hydroxide. The dissolved oxygen was maintained at a level greater than 20% of the saturation value of the medium by varying the aeration rate between 0.5 and 3 VVM in response to the dissolved oxygen tension. Minimal growth medium with 1% w/v sucrose as the sole carbon source (unless otherwise noted) was inoculated with 10^9 conidia. After 24 hours initial growth, cellulase production was induced with either cellobiose or Avicel® added to a final concentration of 0.2% w/v. […]
# Sucrose, fructose, glucose and cellobiose were measured on a DIONEX ICS-3000 HPLC (Dionex Corp., Sunnyvale, Calif.) using a CarboPac PA20 Analytical Column (3×150 mm) and a CarboPac PA20 guard column (3×30 mm) at 30° C. […] Sugars were detected using PAD, Four-Potential Carbohydrate Waveform and Peaks were analyzed using the Chromeleon software package.
structure (smiles),measurement,setting,value
O=C[C@H](O)[C@@H](O)[C@H](O[C@@H]1O[C@H](CO)[C@@H](O)[C@H](O)[C@H]1O)[C@H](O)CO [cellobiose],FPKM of NCU07760 (gh61-2),NCU07760 (gh61-2),538 FPKM
same,cellulase secretion (secreted protein),Neurospora crassa [1],653 µg/mL
same,"aggregate Avicelase activity, glucose equivalents",Neurospora crassa [2]; Δ3βG strain,0.296 mg/mL
same,"aggregate Avicelase activity, glucose equivalents",Neurospora crassa [2]; Δ3βGΔcre strain,0.424 mg/mL
